What all share (type): in vivo
In series [1] the test system is Beet Armyworm (Spodoptera exigua, LAPHEG). Put plainly: Bioassays on Beet Armyworm (BAW), 128-well diet tray assay. Conditions: for mortality at 50 µg/cm2: 168 h, 50 μg/cm^2 on artificial diet, second instar larvae, 25° C., five to seven days, read-out: BAW % Control (or Mortality) rating; for pest or weed control at 50 µg/cm2: Beet Armyworm, Table ABC Biological Results, read-out: BAW (rating). In a few lines: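 Eight diet wells per compound were treated at 50 μg/cm^2 (acetone-water 90:10), dried, then infested with 1–5 second-instar larvae each. After five to seven days at 25 °C under 14:10 photoperiod, mortality was scored and averaged across wells.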

Series [2] concerns Cabbage Looper (Trichoplusia ni, TRIPNI). Description: Bioassays on Cabbage Looper (CL), 128-well diet tray assay. The settings on record: for mortality at 50 µg/cm2: 168 h, 50 μg/cm^2 on artificial diet, second instar larvae, 25° C., five to seven days, read-out: CL % Control (or Mortality) rating; for pest or weed control at 50 µg/cm2: Cabbage Looper, Table ABC Biological Results, read-out: CL (rating). In a few lines:
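Activity is mean percent mortality over eight wells of second-instar larvae exposed to diet treated at 50 μg/cm^2 for 5–7 days at 25° C.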

For series [3], the system named is Yellow Fever Mosquito (Aedes aegypti, AEDSAE). The settings on record: for YFM % Control (or Mortality) rating: about 1 day-old larvae, 96-well plate, room temperature, 3 days; for YFM (rating): Yellow Fever Mosquito, Table ABC Biological Results. As to the method:
Certain molecules disclosed in this document were tested against YFM using procedures described in the following paragraph. In the reporting of the results, the “GPA & YFM Rating Table” was used (See Table Section).
Master plates containing 400 μg of a molecule dissolved in 100 μL of dimethyl sulfoxide (DMSO) (equivalent to a 4000 ppm solution) are used. A master plate of assembled molecules contains 15 μL per well. To this plate, 135 μL of a 90:10 water/acetone mixture is added to each well. A robot (Biomek® NXP Laboratory Automation Workstation) is programmed to dispense 15 μL aspirations from the master plate into an empty 96-well shallow plate (“daughter” plate). There are 6 reps (“daughter” plates) created per master. The created “daughter” plates are then immediately infested with YFM larvae.
The day before plates are to be treated, mosquito eggs are placed in Millipore water containing liver powder to begin hatching (4 g into 400 mL). After the “daughter” plates are created using the robot, they are infested with 220 μL of the liver powder/larval mosquito mixture (about 1 day-old larvae). After plates are infested with mosquito larvae, a non-evaporative lid is used to cover the plate to reduce drying. Plates are held at room temperature for 3 days prior to grading. After 3 days, each well is observed and scored based on mortality. The results are indicated in the table entitled “Table ABC: Biological Results” (See Table Section).

The mortality is the percentage killed. Turning to `Nc1c(F)ccc(NC(=O)c2cc(NC(=O)[C@H]3[C@H](c4cc(Cl)c(Cl)c(Cl)c4)C3(Cl)Cl)ccc2Cl)c1F` [DP2, N-(3-amino-2,4-difluorophenyl)-2-chloro-5-((1R,3R)-2,2-dichloro-3-(3,4,5-trichlorophenyl)cyclopropane-1-carboxamido)benzamide], the mortality at 50 µg/cm2 in series [1] and in series [2] was 50 to 100% throughout. In addition, the “YFM % Control (or Mortality) rating” value in series [3] is “A (80-100)”.
For the molecule `Nc1c(F)ccc(NC(=O)c2cc(NC(=O)[C@H]3[C@H](c4ccc(Cl)c(Cl)c4)C3(Cl)Cl)ccc2Cl)c1F` [DP3, N-(3-Amino-2,4-difluorophenyl)-2-chloro-5-((1R,3R)-2,2-dichloro-3-(3,4-dichlorophenyl)cyclopropane-1-carboxamido)benzamide], the mortality at 50 µg/cm2 in series [1] and in series [2] was 50 to 100% each time. Besides, the “YFM % Control (or Mortality) rating” value in series [3] is “A (80-100)”.
For `Nc1c(F)ccc(NC(=O)c2cc(NC(=O)[C@H]3[C@H](c4ccc(F)c(Cl)c4)C3(Cl)Cl)ccc2Cl)c1F` [DP4, N-(3-Amino-2,4-difluorophenyl)-2-chloro-5-((1R,3R)-2,2-dichloro-3-(3-chloro-4-fluorophenyl)cyclopropane-1-carboxamido)benzamide], the mortality at 50 µg/cm2 in series [1] and in series [2] was 50 to 100% throughout. Besides, the “YFM % Control (or Mortality) rating” value in series [3] is given as “A (80-100)”.
Regarding `Nc1c(F)ccc(NC(=O)c2cc(NC(=O)[C@H]3[C@H](c4ccc(F)c(C(F)(F)F)c4)C3(Cl)Cl)ccc2Cl)c1F` [DP5, N-(3-Amino-2,4-difluorophenyl)-2-chloro-5-((1R,3R)-2,2-dichloro-3-(4-fluoro-3-(trifluoromethyl)phenyl)cyclopropanecarboxamido)benzamide], the mortality at 50 µg/cm2 in series [1] and in series [2] was 50 to 100% in each case. In addition, the “YFM % Control (or Mortality) rating” value in series [3] is “A (80-100)”.
As to `Nc1c(F)ccc(NC(=O)c2cc(NC(=O)[C@H]3[C@H](c4cc(F)cc(C(F)(F)F)c4)C3(Cl)Cl)ccc2Cl)c1F` [DP8, N-(3-Amino-2,4-difluorophenyl)-2-chloro-5-((1R,3R)-2,2-dichloro-3-(3-fluoro-5-(trifluoromethyl)phenyl)cyclopropane-1-carboxamido)benzamide], the mortality at 50 µg/cm2 in series [1] and in series [2] was 50 to 100% throughout. For the same molecule, the “YFM % Control (or Mortality) rating” value in series [3] is given as “A (80-100)”.
Regarding `O=C(CSCC(F)(F)F)Nc1c(F)ccc(NC(=O)c2cc(NC(=O)[C@H]3[C@H](c4ccc(F)c(C(F)(F)F)c4)C3(Cl)Cl)ccc2Cl)c1F` [F15, 2-chloro-5-((R,3R)-2,2-dichloro-3-(4-fluoro-3-(trifluoromethyl)phenyl)cyclopropane-1-carboxamido)-N-(2,4-difluoro-3-(2-((2,2,2-trifluoroethyl)thio)acetamido)phenyl)benzamide], the pest or weed control at 50 µg/cm2 in series [1] and in series [2] was 50 to 100% in each case. Moreover, the “YFM (rating)” value in series [3] is “A (80-100)”.
For `CC(SC(F)(F)F)C(=O)Nc1c(F)ccc(NC(=O)c2cc(NC(=O)[C@H]3[C@H](c4ccc(F)c(C(F)(F)F)c4)C3(Cl)Cl)ccc2Cl)c1F` (stereo partly drawn) [F16, 2-Chloro-5-((1R,3R)-2,2-dichloro-3-(4-fluoro-3-(trifluoromethyl)phenyl)cyclopropane-1-carboxamido)-N-(2,4-difluoro-3-(2-((trifluoromethyl)thio)propanamido)phenyl)benzamide], the pest or weed control at 50 µg/cm2 in series [1] and in series [2] was 50 to 100% each time. For the same molecule, in series [3], the “YFM (rating)” value is on record as “A (80-100)”.
As for `O=C(CSC(F)(F)F)Nc1c(F)ccc(NC(=O)c2cc(NC(=O)[C@H]3[C@H](c4ccc(F)c(C(F)(F)F)c4)C3(Cl)Cl)ccc2Cl)c1F` [F17, 2-Chloro-5-((1R,3R)-2,2-dichloro-3-(4-fluoro-3-(trifluoromethyl)phenyl)cyclopropane-1-carboxamido)-N-(2,4-difluoro-3-(2-((trifluoromethyl)thio)acetamido)phenyl)benzamide], the pest or weed control at 50 µg/cm2 in series [1] and in series [2] was 50 to 100% each time. Also, in series [3], the “YFM (rating)” value was “A (80-100)”.
`CCSC(C)C(=O)Nc1c(F)ccc(NC(=O)c2cc(NC(=O)[C@H]3[C@H](c4ccc(F)c(C(F)(F)F)c4)C3(Cl)Cl)ccc2Cl)c1F` (stereo partly drawn) [F18, 2-Chloro-5-((1R,3R)-2,2-dichloro-3-(4-fluoro-3-(trifluoromethyl)phenyl)cyclopropane-1-carboxamido)-N-(3-(2-(ethylthio)propanamido)-2,4-difluorophenyl)benzamide]: the pest or weed control at 50 µg/cm2 in series [1] and in series [2] was 50 to 100% each time. Besides, the “YFM (rating)” value in series [3] was “A (80-100)”.
Regarding `CCSCC(=O)Nc1c(F)ccc(NC(=O)c2cc(NC(=O)[C@H]3[C@H](c4ccc(F)c(C(F)(F)F)c4)C3(Cl)Cl)ccc2Cl)c1F` [F19, 2-Chloro-5-((1R,3R)-2,2-dichloro-3-(4-fluoro-3-(trifluoromethyl)phenyl)cyclopropane-1-carboxamido)-N-(3-(2-(ethylthio)acetamido)-2,4-difluorophenyl)benzamide], the pest or weed control at 50 µg/cm2 in series [1] and in series [2] was 50 to 100% each time. Also, the “YFM (rating)” value in series [3] is “A (80-100)”.
Consider `O=C(CCSCCC(F)(F)F)Nc1c(F)ccc(NC(=O)c2cc(NC(=O)[C@H]3[C@H](c4ccc(F)c(C(F)(F)F)c4)C3(Cl)Cl)ccc2Cl)c1F` [F21, 2-Chloro-5-((1R,3R)-2,2-dichloro-3-(4-fluoro-3-(trifluoromethyl)phenyl)cyclopropane-1-carboxamido)-N-(2,4-difluoro-3-(3-((3,3,3-trifluoropropyl)thio)propanamido)phenyl)benzamide], for which the pest or weed control at 50 µg/cm2 in series [1] and in series [2] was 50 to 100% in each case. In series [3], the “YFM (rating)” value is reported as “A (80-100)”.
As to `CCSCCC(=O)Nc1c(F)ccc(NC(=O)c2cc(NC(=O)[C@H]3[C@H](c4ccc(F)c(C(F)(F)F)c4)C3(Cl)Cl)ccc2Cl)c1F` [F23, 2-Chloro-5-((1R,3R)-2,2-dichloro-3-(4-fluoro-3-(trifluoromethyl)phenyl)cyclopropane-1-carboxamido)-N-(3-(3-(ethylthio)propanamido)-2,4-difluorophenyl)benzamide], the pest or weed control at 50 µg/cm2 in series [1] and in series [2] was 50 to 100% in each case. Further, the “YFM (rating)” value in series [3] is listed as “A (80-100)”.
As to `CSCCC(=O)Nc1c(F)ccc(NC(=O)c2cc(NC(=O)[C@H]3[C@H](c4ccc(F)c(C(F)(F)F)c4)C3(Cl)Cl)ccc2Cl)c1F` [F24, 2-Chloro-5-((1R,3R)-2,2-dichloro-3-(4-fluoro-3-(trifluoromethyl)phenyl)cyclopropane-1-carboxamido)-N-(2,4-difluoro-3-(3-(methylthio)propanamido)phenyl)benzamide], the pest or weed control at 50 µg/cm2 in series [1] and in series [2] was 50 to 100% each time. Besides, the “YFM (rating)” value in series [3] is listed as “A (80-100)”.
On to `CSCCCC(=O)Nc1c(F)ccc(NC(=O)c2cc(NC(=O)[C@H]3[C@H](c4ccc(F)c(C(F)(F)F)c4)C3(Cl)Cl)ccc2Cl)c1F` [F25, 2-Chloro-5-((1R,3R)-2,2-dichloro-3-(4-fluoro-3-(trifluoromethyl)phenyl)cyclopropane-1-carboxamido)-N-(2,4-difluoro-3-(4-(methylthio)butanamido)phenyl)benzamide], for which the pest or weed control at 50 µg/cm2 in series [1] and in series [2] was 50 to 100% in each case. In addition, the “YFM (rating)” value in series [3] is given as “A (80-100)”.
`O=C(C[S+]([O-])CC(F)(F)F)Nc1c(F)ccc(NC(=O)c2cc(NC(=O)[C@H]3[C@H](c4ccc(F)c(C(F)(F)F)c4)C3(Cl)Cl)ccc2Cl)c1F` (stereo partly drawn) [F32, 2-Chloro-5-((1R,3R)-2,2-dichloro-3-(4-fluoro-3-(trifluoromethyl)phenyl)cyclopropane-1-carboxamido)-N-(2,4-difluoro-3-(2-((2,2,2-trifluoroethyl)sulfinyl)acetamido)phenyl)benzamide]: the pest or weed control at 50 µg/cm2 in series [1] and in series [2] was 50 to 100% in each case. Besides, in series [3], the “YFM (rating)” value was “A (80-100)”.
With `O=C(CCS(=O)(=O)C(F)(F)F)Nc1c(F)ccc(NC(=O)c2cc(NC(=O)[C@H]3[C@H](c4ccc(F)c(C(F)(F)F)c4)C3(Cl)Cl)ccc2Cl)c1F` [F46, 2-Chloro-5-((1R,3R)-2,2-dichloro-3-(4-fluoro-3-(trifluoromethyl)phenyl)cyclopropane-1-carboxamido)-N-(2,4-difluoro-3-(3-((trifluoromethyl)sulfonyl)propanamido)phenyl)benzamide], the pest or weed control at 50 µg/cm2 in series [1] and in series [2] was 50 to 100% throughout. Moreover, the “YFM (rating)” value in series [3] is “A (80-100)”.
